# Counter-ions that a name gives are not always drawn. Like-named read-outs stand apart in the source and are kept apart here.
# Assays:
# MHV (strain MHV-A59) = details: L929 cells
# human coronavirus OC43 = experiment: microbe, parasite or virus in culture; assay type: cell-based; details: Betacoronavirus 1, OC43, MRC5, 120 h, MRC-5 cells, 5 days post infection
# Vpu protein = Vpu protein (Human immunodeficiency virus type 1 group M subtype B, UniProt P05919); details: halo of growth score between zero and six; XL1-blue E. coli with pPL-Vpu, no adenine, 37° C.
# SARS-CoV E protein = SARS-CoV E protein (Severe acute respiratory syndrome coronavirus, UniProt P59637); assay type: cell-based
# 229E-CoV E-protein = 229E-CoV E-protein (Human coronavirus 229E, UniProt P19741); experiment: Bacterial bio-assay for 229E-CoV E-protein; details: halo of growth score; E. coli expressing E protein at 37° C.
Compound,Percent reduction in Plaque number/# experiments (MHV (strain MHV-A59); 1 uM),Percent reduction in Plaque number/# experiments (MHV (strain MHV-A59); 10 uM),Percent reduction in Plaque number/# experiments (MHV (strain MHV-A59); 20 uM),inhibition at 2.5 µM (human coronavirus OC43),Vpu Inhibition (score/# of times tested) (Vpu protein),SARS E protein Inhibition (score/# of times tested) (SARS-CoV E protein),229E E protein Inhibition (score) (229E-CoV E-protein),Toxic (noted in place of plaque reduction) (MHV (strain MHV-A59); 20 uM)
"N=C(N)NC(=O)/C=C/c1ccc(Cl)cc1Cl [2,4-dichlorocinnamolyguanidine]",43/1%,73/1%,76/1%,36%,0.63/2 score,0.63/2 score,–,–
"N=C(N)NC(=O)/C=C/c1c(Cl)cccc1Cl [2,6-dichlorocinnamoylguanidine]",40/1%,70/1%,91/1%,27%,2.88/2 score,2.25/1 score,1.0 score,–
"N=C(N)NC(=O)/C=C/c1ccc(Cl)c(Cl)c1 [3,4-dichlorocinnamoylguanidine]",50/2%,96/1%,91/2%,90%,2.9/3 score,4.15/2 score,4.4 score,–
N=C(N)NC(=O)/C=C/c1cccc(OC(F)(F)F)c1 [3-(trifluoromethoxy)cinnamoylguanidine],41/2%,90/3%,100/1%,4%,2.44/2 score,2.71/1 score,4.1 score,–
CCOc1ccc(/C=C/C(=O)NC(=N)N)cc1 [4-ethoxycinnamoylguanidine],40/1%,92/1%,96/1%,–,0.69/2 score,2.48/2 score,0.1 score,–
N=C(N)NC(=O)/C=C/c1ccc(F)cc1 [4-fluorocinnamoylguanidine],20/1%,83/1%,86/1%,–,1.1/2 score,1.25/1 score,0.4 score,–
CC(C)c1ccc(/C=C/C(=O)NC(=N)N)cc1 [4-isopropylcinnamoylguanidine],41/3%,93/3%,95/3%,68%,1.4/2 score,3.16/2 score,4.9 score,–
Cc1ccc(/C=C/C(=O)NC(=N)N)cc1 [4-methylcinnamoylguanidine],20/1%,89/1%,93/1%,–,2.1/2 score,1.25/1 score,0.3 score,–
N=C(N)NC(=O)/C=C/c1ccc(-c2ccccc2)cc1 [4-phenylcinnamoylguanidine],21/3%,36/1%,53/1%,–,1.1/2 score,2.75/2 score,1.0 score,–
"N=C(N)NC(=O)/C=C/C=C/c1cccc(Br)c1 [5-(3′-bromophenyl)penta-2,4-dienoylguanidine]",66/1%,99/2%,–,–,2.5/2 score,0.5/1 score,0.3 score,–
NC(N)=NC(=O)c1nc(Cl)c(Nc2ccc(F)cc2)nc1N [5-(4-fluorophenyl)amiloride],16/1%,25/1%,4/1%,–,0.4/6 score,1.38/1 score,1.8 score,–
"CN(C)c1nc(N)c(C(=O)N=C(N)N)nc1Cl [5-(N,N-Dimethyl)amiloride hydrochloride]",17/4%,7/4%,42/4%,–,0.1/2 score,1.38/2 score,1.3 score,–
N=C(N)NC(=O)/C=C/c1cc(Br)ccc1F [5-bromo-2-fluorocinnamoylguanidine],31/1%,81/2%,–,–,3.5/2 score,2.00/1 score,1.4 score,Toxic
COc1ccc(Br)cc1/C=C/C(=O)NC(=N)N [5-bromo-2-methoxycinnamoylguanidine],66/1%,100/1%,–,24%,1.9/2 score,–,3.6 score,–
CC(C)(C)Nc1nc(N)c(C(=O)N=C(N)N)nc1Cl [5-tert-butylamino-amiloride],34/4%,84/4%,89/4%,–,0.2/7 score,2.01/2 score,0.3 score,–
COc1ccccc1/C=C/C(=O)NC(=N)N [(2-Methoxycinnamoyl)guanidine],23/2%,85/2%,90/2%,–,1.7/4 score,0.69/2 score,1.1 score,–
N=C(N)NC(=O)/C=C/c1cccc(Cl)c1 [(3-Chlorocinnamoyl)guanidine],39/2%,86/2%,94/1%,–,4.38/4 score,3.87/3 score,0.8 score,–
COc1cccc(/C=C/C(=O)NC(=N)N)c1 [(3-Methoxycinnamoyl)guanidine],37/3%,87/2%,92/2%,–,1.52/6 score,0.63/2 score,1.4 score,–
N=C(N)NC(=O)/C=C/c1cccc([N+](=O)[O-])c1 [(3-Nitrocinnamoyl)guanidine],42/3%,77/3%,95/2%,–,0.9/1 score,1.51/2 score,0.1 score,–
N=C(N)NC(=O)/C=C/c1ccc(O)cc1 [(4-Hydroxycinnamoyl)guanidine],13/1%,15/1%,19/1%,–,1.1/2 score,1.63/2 score,0.6 score,–
COc1ccc(/C=C/C(=O)NC(=N)N)cc1 [(4-Methoxycinnamoyl)guanidine],51/3%,96/4%,98/4%,–,2.13/3 score,0.88/2 score,0.1 score,–
NC(N)=NC(=O)c1ccc(Oc2ccccc2)cc1 [(4-Phenoxybenzoyl)guanidine],32/1%,65/1%,73/1%,–,0.81/2 score,0.57/2 score,2.3 score,–
"C/C(=C\c1ccccc1)C(=O)NC(=N)N [(a-Methylcinnamoyl)guanidine, (α-Methylcinnamoyl)guanidine]",51/2%,75/3%,81/2%,–,0.6/2 score,0.50/1 score,1.0 score,–
Cl.N=C(N)NC(=O)/C=C/c1ccccc1 [cinnamoylguanidine hydrochloride],56/1%,72/2%,85/1%,–,0.6/2 score,2.50/1 score,0.5 score,–
